Assay results published in the kinase profiling compilation of Christmann-Franck et al. (2016).

Assays:
Assay in all cases: KINOMEscan competition binding
Settings in all cases: compound 10.0 µM
FES (human) = FES (human) (UniProt P07332)
PRKG1 (human) = PRKG1 (human) (UniProt Q13976)
DDR1 (human) = DDR1 (human) (UniProt Q08345)
CDKL2 (human) = CDKL2 (human) (UniProt Q92772)
STK35 (human) = STK35 (human) (UniProt Q8TDR2)
MET (human) = MET (human) (UniProt P08581)
NUAK1 (human) = NUAK1 (human) (UniProt O60285)
CDK5 (human) = CDK5 (human) (UniProt Q00535)
NTRK2 (human) = NTRK2 (human) (UniProt Q16620)
[1] = system: RET (human), P07949 [V804L]
PLK3 (human) = PLK3 (human) (UniProt Q9H4B4)
EPHB4 (human) = EPHB4 (human) (UniProt P54760)
MAPKAPK5 (human) = MAPKAPK5 (human) (UniProt Q8IW41)
SIK2 (human) = SIK2 (human) (UniProt Q9H0K1)
TLK2 (human) = TLK2 (human) (UniProt Q86UE8)
IKBKE (human) = IKBKE (human) (UniProt Q14164)
INSR (human) = INSR (human) (UniProt P06213)
NUAK2 (human) = NUAK2 (human) (UniProt Q9H093)
[2] = target: TYK2 JH1 catalytic (human) (UniProt P29597)
[3] = system: EGFR (human), P00533 [G719C; 746-750 del]
MYLK2 (human) = MYLK2 (human) (UniProt Q9H1R3)
ROCK2 (human) = ROCK2 (human) (UniProt O75116)
PTK2 (human) = PTK2 (human) (UniProt Q05397)
EPHA7 (human) = EPHA7 (human) (UniProt Q15375)
[4] = system: EGFR (human), P00533 [752-759 del]
CAMK2B (human) = CAMK2B (human) (UniProt Q13554)
NLK (human) = NLK (human) (UniProt Q9UBE8)
STK10 (human) = STK10 (human) (UniProt O94804)
MAPK10 (human) = MAPK10 (human) (UniProt P53779)
RPS6KA3 KD1 (human) = RPS6KA3 KD1 (human) (UniProt P51812)
MAP3K9 (human) = MAP3K9 (human) (UniProt P80192)
TSSK1B (human) = TSSK1B (human) (UniProt Q9BXA7)
NEK1 (human) = NEK1 (human) (UniProt Q96PY6)
BRSK1 (human) = BRSK1 (human) (UniProt Q8TDC3)
MARK3 (human) = MARK3 (human) (UniProt P27448)
[5] = system: ABL1 (human), P00519 [M351T]
NEK5 (human) = NEK5 (human) (UniProt Q6P3R8)
ACVRL1 (human) = ACVRL1 (human) (UniProt P37023)
CDK18 (human) = CDK18 (human) (UniProt Q07002)
PRKCH (human) = PRKCH (human) (UniProt P24723)
CDK17 (human) = CDK17 (human) (UniProt Q00537)
RPS6KA6 KD1 (human) = RPS6KA6 KD1 (human) (UniProt Q9UK32)
Sequence of RPS6KA6 KD1 (human) (Q9UK32 whole entry, looked up): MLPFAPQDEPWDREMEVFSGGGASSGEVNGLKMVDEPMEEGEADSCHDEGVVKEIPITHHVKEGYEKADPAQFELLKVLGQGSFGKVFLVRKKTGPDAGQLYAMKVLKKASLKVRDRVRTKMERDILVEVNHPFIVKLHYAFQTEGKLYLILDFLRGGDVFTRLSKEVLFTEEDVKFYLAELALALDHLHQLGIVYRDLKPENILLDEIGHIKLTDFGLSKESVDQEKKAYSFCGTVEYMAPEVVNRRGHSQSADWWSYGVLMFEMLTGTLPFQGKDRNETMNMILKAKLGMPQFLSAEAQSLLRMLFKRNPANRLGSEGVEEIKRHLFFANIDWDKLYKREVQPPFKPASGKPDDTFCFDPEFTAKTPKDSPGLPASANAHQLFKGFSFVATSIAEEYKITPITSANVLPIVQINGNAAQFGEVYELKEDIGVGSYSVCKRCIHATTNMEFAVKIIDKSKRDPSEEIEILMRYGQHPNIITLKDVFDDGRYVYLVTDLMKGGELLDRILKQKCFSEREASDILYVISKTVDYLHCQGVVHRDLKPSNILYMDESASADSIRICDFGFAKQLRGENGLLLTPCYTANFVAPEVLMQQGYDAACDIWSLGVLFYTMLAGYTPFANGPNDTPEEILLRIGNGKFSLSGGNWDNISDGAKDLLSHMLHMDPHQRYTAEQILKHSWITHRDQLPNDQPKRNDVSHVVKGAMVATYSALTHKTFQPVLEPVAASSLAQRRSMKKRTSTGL

Sequence of RPS6KA3 KD1 (human) (P51812 whole entry, looked up): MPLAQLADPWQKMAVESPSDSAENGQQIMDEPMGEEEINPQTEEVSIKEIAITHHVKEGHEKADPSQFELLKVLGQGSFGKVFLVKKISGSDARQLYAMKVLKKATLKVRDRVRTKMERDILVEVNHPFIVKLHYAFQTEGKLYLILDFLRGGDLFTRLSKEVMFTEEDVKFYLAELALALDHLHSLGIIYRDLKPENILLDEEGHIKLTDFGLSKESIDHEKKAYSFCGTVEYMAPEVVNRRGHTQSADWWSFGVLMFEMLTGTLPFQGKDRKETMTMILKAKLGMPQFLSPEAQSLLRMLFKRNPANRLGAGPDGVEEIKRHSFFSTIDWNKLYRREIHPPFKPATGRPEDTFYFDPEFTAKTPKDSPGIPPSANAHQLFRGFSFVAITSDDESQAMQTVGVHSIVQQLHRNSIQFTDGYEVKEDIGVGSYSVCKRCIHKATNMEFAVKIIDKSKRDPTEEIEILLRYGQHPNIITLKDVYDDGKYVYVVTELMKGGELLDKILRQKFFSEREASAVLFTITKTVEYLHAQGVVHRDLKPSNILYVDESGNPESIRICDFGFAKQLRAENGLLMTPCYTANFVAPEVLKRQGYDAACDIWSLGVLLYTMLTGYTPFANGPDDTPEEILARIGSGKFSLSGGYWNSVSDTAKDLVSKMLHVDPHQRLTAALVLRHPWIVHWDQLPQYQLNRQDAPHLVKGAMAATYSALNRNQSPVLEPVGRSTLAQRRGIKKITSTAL
Sequence of MYLK2 (human) (Q9H1R3 whole entry, looked up): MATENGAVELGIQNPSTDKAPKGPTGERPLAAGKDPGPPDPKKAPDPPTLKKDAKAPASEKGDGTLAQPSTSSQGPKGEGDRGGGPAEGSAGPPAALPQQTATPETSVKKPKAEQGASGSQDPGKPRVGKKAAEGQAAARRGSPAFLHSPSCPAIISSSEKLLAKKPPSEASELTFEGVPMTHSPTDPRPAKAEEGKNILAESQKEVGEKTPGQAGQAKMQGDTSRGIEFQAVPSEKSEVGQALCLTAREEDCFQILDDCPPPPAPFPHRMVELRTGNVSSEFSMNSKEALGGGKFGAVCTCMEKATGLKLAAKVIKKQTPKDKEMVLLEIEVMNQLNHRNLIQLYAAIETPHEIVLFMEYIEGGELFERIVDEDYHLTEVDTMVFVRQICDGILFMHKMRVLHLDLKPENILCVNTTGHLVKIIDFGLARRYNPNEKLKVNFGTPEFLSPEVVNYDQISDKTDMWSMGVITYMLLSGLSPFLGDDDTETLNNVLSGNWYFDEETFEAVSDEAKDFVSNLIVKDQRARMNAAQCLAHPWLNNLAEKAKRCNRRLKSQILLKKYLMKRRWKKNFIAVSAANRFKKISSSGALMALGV
Sequence of TSSK1B (human) (Q9BXA7 whole entry, looked up): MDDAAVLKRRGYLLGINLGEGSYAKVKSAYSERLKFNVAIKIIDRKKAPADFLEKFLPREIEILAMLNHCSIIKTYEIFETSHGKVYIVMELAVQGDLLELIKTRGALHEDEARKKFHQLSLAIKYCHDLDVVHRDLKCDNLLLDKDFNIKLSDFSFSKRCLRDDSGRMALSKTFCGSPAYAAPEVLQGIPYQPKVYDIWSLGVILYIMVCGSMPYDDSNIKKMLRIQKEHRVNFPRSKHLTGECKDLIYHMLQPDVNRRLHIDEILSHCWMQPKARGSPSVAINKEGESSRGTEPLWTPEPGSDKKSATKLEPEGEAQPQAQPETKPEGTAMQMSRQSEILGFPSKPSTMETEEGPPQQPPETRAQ
Sequence of BRSK1 (human) (Q8TDC3 whole entry, looked up): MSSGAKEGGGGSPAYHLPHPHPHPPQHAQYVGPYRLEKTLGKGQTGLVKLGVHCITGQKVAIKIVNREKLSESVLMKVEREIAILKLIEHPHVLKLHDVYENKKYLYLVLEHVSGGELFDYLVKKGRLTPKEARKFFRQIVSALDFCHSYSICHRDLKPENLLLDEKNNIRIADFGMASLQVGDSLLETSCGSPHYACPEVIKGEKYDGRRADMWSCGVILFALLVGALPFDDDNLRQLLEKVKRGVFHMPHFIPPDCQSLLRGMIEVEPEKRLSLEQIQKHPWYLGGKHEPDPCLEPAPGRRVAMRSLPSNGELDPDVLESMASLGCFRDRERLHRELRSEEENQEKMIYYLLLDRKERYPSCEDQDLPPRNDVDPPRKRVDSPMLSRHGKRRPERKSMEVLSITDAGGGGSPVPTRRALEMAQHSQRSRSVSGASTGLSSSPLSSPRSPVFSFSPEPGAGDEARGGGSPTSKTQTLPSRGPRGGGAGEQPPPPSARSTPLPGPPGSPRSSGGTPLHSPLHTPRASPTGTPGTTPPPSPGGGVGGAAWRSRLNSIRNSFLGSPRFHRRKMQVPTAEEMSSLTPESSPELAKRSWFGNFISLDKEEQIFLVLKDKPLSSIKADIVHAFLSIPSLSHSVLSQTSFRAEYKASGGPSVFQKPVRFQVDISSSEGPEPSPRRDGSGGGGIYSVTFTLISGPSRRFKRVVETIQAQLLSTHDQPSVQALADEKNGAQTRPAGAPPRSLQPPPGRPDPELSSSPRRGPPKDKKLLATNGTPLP
Sequence of CDK18 (human) (Q07002 whole entry, looked up): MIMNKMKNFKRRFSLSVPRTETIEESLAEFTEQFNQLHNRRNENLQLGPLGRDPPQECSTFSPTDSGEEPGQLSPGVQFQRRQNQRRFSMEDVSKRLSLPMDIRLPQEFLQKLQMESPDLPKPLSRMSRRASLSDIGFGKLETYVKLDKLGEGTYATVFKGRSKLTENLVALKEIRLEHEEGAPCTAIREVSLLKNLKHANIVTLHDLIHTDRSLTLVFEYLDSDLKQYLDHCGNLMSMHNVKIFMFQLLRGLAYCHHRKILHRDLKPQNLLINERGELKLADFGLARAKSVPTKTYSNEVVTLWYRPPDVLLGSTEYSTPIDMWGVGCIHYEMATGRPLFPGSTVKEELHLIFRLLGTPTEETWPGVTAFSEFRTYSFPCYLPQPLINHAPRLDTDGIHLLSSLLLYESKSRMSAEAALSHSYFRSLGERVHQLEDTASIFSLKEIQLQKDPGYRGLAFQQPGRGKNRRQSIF
Sequence of NUAK2 (human) (Q9H093 whole entry, looked up): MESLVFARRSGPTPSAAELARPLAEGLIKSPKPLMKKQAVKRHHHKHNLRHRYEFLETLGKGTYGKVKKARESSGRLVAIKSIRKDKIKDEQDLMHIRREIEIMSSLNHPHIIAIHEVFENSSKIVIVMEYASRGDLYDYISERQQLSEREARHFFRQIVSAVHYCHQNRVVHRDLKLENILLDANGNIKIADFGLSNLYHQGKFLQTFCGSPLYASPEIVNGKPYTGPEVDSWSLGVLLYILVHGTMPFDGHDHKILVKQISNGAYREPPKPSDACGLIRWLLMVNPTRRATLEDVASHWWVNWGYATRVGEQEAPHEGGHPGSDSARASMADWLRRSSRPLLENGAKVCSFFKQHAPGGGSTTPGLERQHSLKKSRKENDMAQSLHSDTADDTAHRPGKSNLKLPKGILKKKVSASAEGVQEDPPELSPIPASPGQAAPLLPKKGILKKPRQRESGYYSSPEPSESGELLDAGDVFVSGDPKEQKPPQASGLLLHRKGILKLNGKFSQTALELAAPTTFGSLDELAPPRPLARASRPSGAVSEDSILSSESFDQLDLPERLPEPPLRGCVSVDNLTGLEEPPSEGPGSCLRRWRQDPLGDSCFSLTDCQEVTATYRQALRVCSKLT
Sequence of IKBKE (human) (Q14164 whole entry, looked up): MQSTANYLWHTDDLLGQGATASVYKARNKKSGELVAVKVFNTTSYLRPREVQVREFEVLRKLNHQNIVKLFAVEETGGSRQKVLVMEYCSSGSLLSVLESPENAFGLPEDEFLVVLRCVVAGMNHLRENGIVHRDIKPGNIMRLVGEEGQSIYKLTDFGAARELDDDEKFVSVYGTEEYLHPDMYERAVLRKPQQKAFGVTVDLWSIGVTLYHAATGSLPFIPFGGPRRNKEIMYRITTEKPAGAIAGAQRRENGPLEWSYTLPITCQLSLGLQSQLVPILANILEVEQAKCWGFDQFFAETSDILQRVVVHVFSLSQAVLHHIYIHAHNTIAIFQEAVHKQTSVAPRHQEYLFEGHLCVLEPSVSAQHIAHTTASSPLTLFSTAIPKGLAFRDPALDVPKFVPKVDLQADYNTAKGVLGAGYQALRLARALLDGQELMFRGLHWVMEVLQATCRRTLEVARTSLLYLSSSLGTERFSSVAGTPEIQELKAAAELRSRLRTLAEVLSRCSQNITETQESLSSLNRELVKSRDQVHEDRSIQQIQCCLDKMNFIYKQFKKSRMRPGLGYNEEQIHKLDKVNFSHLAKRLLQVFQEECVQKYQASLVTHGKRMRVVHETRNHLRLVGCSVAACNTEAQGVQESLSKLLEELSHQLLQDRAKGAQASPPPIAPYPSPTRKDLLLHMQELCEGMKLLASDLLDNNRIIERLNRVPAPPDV

A kinase still bound, per cent of control (FES (human)) of 100%, a kinase still bound, per cent of control (PRKG1 (human)) of 100% and a kinase still bound, per cent of control (DDR1 (human)) of 100% were found for COc1cc(N2CCN(C)CC2)ccc1Nc1ncc2c(n1)N(C)c1sccc1C(=O)N2C in this work. For the same molecule, the kinase still bound, per cent of control (CDKL2 (human)) was 100%, the kinase still bound, per cent of control (STK35 (human)) was 89% and the kinase still bound, per cent of control (MET (human)) was 96%. The kinase still bound, per cent of control (NUAK1 (human)) was 25%, the kinase still bound, per cent of control (CDK5 (human)) was 74% and the kinase still bound, per cent of control (NTRK2 (human)) was 83%. It also gave a kinase still bound, per cent of control [1] of 89%, a kinase still bound, per cent of control (PLK3 (human)) of 22% and a kinase still bound, per cent of control (EPHB4 (human)) of 100%. The kinase still bound, per cent of control (MAPKAPK5 (human)) was 69%, the kinase still bound, per cent of control (SIK2 (human)) was 87% and the kinase still bound, per cent of control (TLK2 (human)) was 93%. For the same molecule, the kinase still bound, per cent of control (IKBKE (human)) was 100%, the kinase still bound, per cent of control (INSR (human)) was 100% and the kinase still bound, per cent of control (NUAK2 (human)) was 8%. The kinase still bound, per cent of control [2] was 62%, the kinase still bound, per cent of control [3] was 82% and the kinase still bound, per cent of control (MYLK2 (human)) was 90%. It also gave a kinase still bound, per cent of control (ROCK2 (human)) of 57%, a kinase still bound, per cent of control (PTK2 (human)) of 13% and a kinase still bound, per cent of control (EPHA7 (human)) of 92%. It also gave a kinase still bound, per cent of control [4] of 78%, a kinase still bound, per cent of control (CAMK2B (human)) of 58% and a kinase still bound, per cent of control (NLK (human)) of 100%. The kinase still bound, per cent of control (STK10 (human)) was 100%, the kinase still bound, per cent of control (MAPK10 (human)) was 70% and the kinase still bound, per cent of control (RPS6KA3 KD1 (human)) was 99%. For the same molecule, the kinase still bound, per cent of control (MAP3K9 (human)) was 100%, the kinase still bound, per cent of control (TSSK1B (human)) was 38% and the kinase still bound, per cent of control (NEK1 (human)) was 77%. It also gave a kinase still bound, per cent of control (BRSK1 (human)) of 81%, a kinase still bound, per cent of control (MARK3 (human)) of 91% and a kinase still bound, per cent of control [5] of 82%. For the same molecule, the kinase still bound, per cent of control (NEK5 (human)) was 94%, the kinase still bound, per cent of control (ACVRL1 (human)) was 99% and the kinase still bound, per cent of control (CDK18 (human)) was 76%. The kinase still bound, per cent of control (PRKCH (human)) was 95%, the kinase still bound, per cent of control (CDK17 (human)) was 85% and the kinase still bound, per cent of control (RPS6KA6 KD1 (human)) was 96%.
A kinase still bound, per cent of control (FES (human)) of 93%, a kinase still bound, per cent of control (PRKG1 (human)) of 85% and a kinase still bound, per cent of control (DDR1 (human)) of 100% were found for COc1cc(N2CCC(O)CC2)ccc1Nc1ncc2c(n1)N1CCc3cccc(c31)C(=O)N2C in this work. The kinase still bound, per cent of control (CDKL2 (human)) was 100%, the kinase still bound, per cent of control (STK35 (human)) was 95% and the kinase still bound, per cent of control (MET (human)) was 90%. For the same molecule, the kinase still bound, per cent of control (NUAK1 (human)) was 100%, the kinase still bound, per cent of control (CDK5 (human)) was 86% and the kinase still bound, per cent of control (NTRK2 (human)) was 100%. The kinase still bound, per cent of control [1] was 100%, the kinase still bound, per cent of control (PLK3 (human)) was 0.75% and the kinase still bound, per cent of control (EPHB4 (human)) was 100%. It also gave a kinase still bound, per cent of control (MAPKAPK5 (human)) of 95%, a kinase still bound, per cent of control (SIK2 (human)) of 100% and a kinase still bound, per cent of control (TLK2 (human)) of 94%. It also gave a kinase still bound, per cent of control (IKBKE (human)) of 92%, a kinase still bound, per cent of control (INSR (human)) of 53% and a kinase still bound, per cent of control (NUAK2 (human)) of 60%. For the same molecule, the kinase still bound, per cent of control [2] was 64%, the kinase still bound, per cent of control [3] was 78% and the kinase still bound, per cent of control (MYLK2 (human)) was 98%. For the same molecule, the kinase still bound, per cent of control (ROCK2 (human)) was 86%, the kinase still bound, per cent of control (PTK2 (human)) was 4.6% and the kinase still bound, per cent of control (EPHA7 (human)) was 92%. The kinase still bound, per cent of control [4] was 81%, the kinase still bound, per cent of control (CAMK2B (human)) was 72% and the kinase still bound, per cent of control (NLK (human)) was 73%. It also gave a kinase still bound, per cent of control (STK10 (human)) of 100%, a kinase still bound, per cent of control (MAPK10 (human)) of 42% and a kinase still bound, per cent of control (RPS6KA3 KD1 (human)) of 55%. The kinase still bound, per cent of control (MAP3K9 (human)) was 96%, the kinase still bound, per cent of control (TSSK1B (human)) was 74% and the kinase still bound, per cent of control (NEK1 (human)) was 60%. It also gave a kinase still bound, per cent of control (BRSK1 (human)) of 100%, a kinase still bound, per cent of control (MARK3 (human)) of 88% and a kinase still bound, per cent of control [5] of 93%. The kinase still bound, per cent of control (NEK5 (human)) was 81%, the kinase still bound, per cent of control (ACVRL1 (human)) was 100% and the kinase still bound, per cent of control (CDK18 (human)) was 100%. It also gave a kinase still bound, per cent of control (PRKCH (human)) of 100%, a kinase still bound, per cent of control (CDK17 (human)) of 94% and a kinase still bound, per cent of control (RPS6KA6 KD1 (human)) of 87%.
